From patent US20130158075A1, “HETEROCYCLIC COMPOUNDS AS DGAT1 INHIBITORS” (PIRAMAL ENTERPRISES LIMITED, priority 2010, published 2013)
Structures can show the parent of a compound that is named as a salt.

The compounds below were run against T1, hDGAT1 (Homo sapiens, UniProt O75907) (assay: In-vitro DGAT1 assay with hDGAT1 microsomes from Sf9 cells (14C oleoyl CoA, scintillation counting)). Details: read-out: Percentage inhibition of hDGAT1.
T1 construct: made in house; host or cells: Sf9 insect cells (baculovirus); microsomal fraction
T1 sequence (O75907 1-488): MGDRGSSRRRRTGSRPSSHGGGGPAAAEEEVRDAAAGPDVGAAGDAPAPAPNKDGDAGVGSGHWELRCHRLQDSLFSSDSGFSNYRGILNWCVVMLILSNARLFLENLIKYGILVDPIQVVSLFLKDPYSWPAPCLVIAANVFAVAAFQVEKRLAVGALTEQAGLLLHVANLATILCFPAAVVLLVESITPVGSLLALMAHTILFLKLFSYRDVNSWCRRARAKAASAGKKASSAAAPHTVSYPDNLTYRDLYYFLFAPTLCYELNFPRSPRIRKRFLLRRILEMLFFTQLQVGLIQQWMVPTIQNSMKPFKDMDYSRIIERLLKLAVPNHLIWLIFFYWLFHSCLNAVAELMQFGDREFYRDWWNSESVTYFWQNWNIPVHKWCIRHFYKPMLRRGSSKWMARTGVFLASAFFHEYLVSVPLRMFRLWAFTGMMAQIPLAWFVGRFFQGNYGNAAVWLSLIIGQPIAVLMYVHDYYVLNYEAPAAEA
Type: biochemical
In short: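 Microsomes from Sf9 cells infected with hDGAT1 baculovirus (MOI 5, harvested ~66-72 h) were incubated with [14C]oleoyl-CoA and 1,2-dioleoyl-sn-glycerol at 37 °C for 10 min, in duplicate. After alkaline ethanol stop, triglycerides were heptane-extracted and counted by liquid scintillation; percent inhibition was plotted against compound concentration (nM).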

First: Cc1nnc(CC2CCC(c3ncc(-c4ccc(NC(=O)Nc5cc(F)c(F)cc5F)cc4)s3)CC2)s1 (stereo not drawn) [Example 414, 1-(4-(2-(4-((5-Methyl-1,3,4-thiadiazol-2-yl)methyl)cyclohexyl)thiazol-5-yl)phenyl)-3-(2,4,5-trifluorophenyl)urea]
Second: O=C(Nc1ccc(-c2cnc(C3CCNCC3)s2)cc1)Nc1cc(F)c(F)cc1F [Example 480, 1-(4-(2-(Piperidin-4-yl)thiazol-5-yl)phenyl)-3-(2,4,5-trifluorophenyl)urea hydrochloride]
The inhibition at 1 µM of the first is higher: over 50% for the first, 20 to 50% for the second.

`O=C(O)CN1CCC(c2ncc(-c3ccc(NC(=O)Nc4ccccc4Cl)cc3)s2)CC1` [Example 429, 2-(4-(5-(4-(3-(2-Chlorophenyl)ureido)phenyl)thiazol-2-yl)piperidin-1-yl)acetic acid] and `O=C(O)CN1CCC(c2ncc(-c3ccc(NC(=O)Nc4ccccc4F)cc3)s2)CC1` [Example 431, 2-(4-(5-(4-(3-(2-Fluorophenyl)ureido)phenyl)thiazol-2-yl)piperidin-1-yl)acetic acid] cannot be ordered by inhibition at 1 µM: over 50% for the first, over 50% for the second.

Compared with `O=C(O)CN1CCC(c2ncc(-c3ccc(NC(=O)Nc4ccc(F)cc4F)cc3)s2)CC1` [Example 433, 2-(4-(5-(4-(3-(2,4-Difluorophenyl)ureido)phenyl)thiazol-2-yl)piperidin-1-yl)acetic acid], `O=C(O)CN1CCC(c2ncc(-c3ccc(NC(=O)Nc4ccc(F)c(F)c4F)cc3)s2)CC1` [Example 439, 2-(4-(5-(4-(3-(2,3,4-Trifluorophenyl)ureido)phenyl)thiazol-2-yl)piperidin-1-yl)acetic acid] is lower in inhibition at 1 µM: over 50% for the first, 20 to 50% for the second.

`O=C(O)CN1CCC(c2ncc(-c3ccc(NC(=O)Nc4cc(F)c(F)cc4F)cc3)s2)CC1` [Example 435, 2-(4-(5-(4-(3-(2,4,5-Trifluorophenyl)ureido)phenyl)thiazol-2-yl)piperidin-1-yl)acetic acid] and `CC(C(=O)O)N1CCC(c2ncc(-c3ccc(NC(=O)Nc4cc(F)c(F)cc4F)cc3)s2)CC1` (stereo not drawn) [Example 451, 2-(4-(5-(4-(3-(2,4,5-Trifluorophenyl)ureido)phenyl)thiazol-2-yl)piperidin-1-yl)propanoic acid] cannot be ordered by inhibition at 1 µM: over 50% for the first, over 50% for the second.

First: O=C(O)CN1CCC(c2ncc(-c3ccc(NC(=O)Nc4ccccc4C(F)(F)F)cc3)s2)CC1 [Example 437, 2-(4-(5-(4-(3-(2-(Trifluoromethyl)phenyl)ureido)phenyl)thiazol-2-yl)piperidin-1-yl)acetic acid]
Second: O=C(Nc1ccc(-c2cnc(C3CCN(S(=O)(=O)C(F)(F)F)CC3)s2)cc1)Nc1ccccc1F [Example 483, 1-(2-Fluorophenyl)-3-(4-(2-(1-((trifluoromethyl)sulfonyl)piperidin-4-yl)thiazol-5-yl)phenyl)urea]
The inhibition at 1 µM of the first is higher: over 50% for the first, 20 to 50% for the second.

`CC(C(=O)O)N1CCC(c2ncc(-c3ccc(NC(=O)Nc4ccccc4F)cc3)s2)CC1` (stereo not drawn) [Example 453, 2-(4-(5-(4-(3-(2-Fluorophenyl)ureido)phenyl)thiazol-2-yl)piperidin-1-yl) propanoic acid] and `CC(C(=O)O)N1CCC(c2ncc(-c3ccc(NC(=O)Nc4ccccc4Cl)cc3)s2)CC1` (stereo not drawn) [Example 455, 2-(4-(5-(4-(3-(2-Chlorophenyl)ureido)phenyl)thiazol-2-yl)piperidin-1-yl)propanoic acid] cannot be ordered by inhibition at 1 µM: over 50% for the first, over 50% for the second.

First: CC(C(=O)O)N1CCC(c2ncc(-c3ccc(NC(=O)Nc4c(F)cc(F)cc4F)cc3)s2)CC1 (stereo not drawn) [Example 459, 2-(4-(5-(4-(3-(2,4,6-Trifluorophenyl)ureido)phenyl)thiazol-2-yl)piperidin-1-yl)propanoic acid]
Second: CS(=O)(=O)N1CCC(c2ncc(-c3ccc(NC(=O)Nc4c(F)cc(F)cc4F)cc3)s2)CC1 [Example 493, 1-(4-(2-(1-(Methylsulfonyl)piperidin-4-yl)thiazol-5-yl)phenyl)-3-(2,4,6-trifluorophenyl)urea]
The inhibition at 1 µM of the first is higher: over 50% for the first, 20 to 50% for the second.

`O=C(Nc1ccc(-c2cnc(C3CCNCC3)s2)cc1)Nc1ccccc1Cl` [Example 474, 1-(2-Chlorophenyl)-3-(4-(2-(piperidin-4-yl)thiazol-5-yl)phenyl)urea hydrochloride] and `O=C(Nc1ccc(-c2cnc(C3CCNCC3)s2)cc1)Nc1ccccc1F` [Example 476, 1-(2-Fluorophenyl)-3-(4-(2-(piperidin-4-yl)thiazol-5-yl)phenyl)urea hydrochloride] fall in the same range of inhibition at 1 µM: 20 to 50% for the first, 20 to 50% for the second.

`CC(C)(C)OC(=O)N1CCC(c2ncc(-c3ccc(NC(=O)Nc4ccccc4F)cc3)s2)CC1` [Example 475, t-Butyl 4-(5-(4-(3-(2-fluorophenyl)ureido)phenyl)thiazol-2-yl)piperidine-1-carboxylate] and `CC(C)(C)OC(=O)N1CCC(c2ncc(-c3ccc(NC(=O)Nc4ccc(F)cc4F)cc3)s2)CC1` [Example 477, t-Butyl 4-(5-(4-(3-(2,4-difluorophenyl)ureido)phenyl)thiazol-2-yl)piperidine-1-carboxylate] fall in the same range of inhibition at 1 µM: 20 to 50% for the first, 20 to 50% for the second.

`O=C(Nc1ccc(-c2cnc(C3CCNCC3)s2)cc1)Nc1ccc(F)cc1F` [Example 478, 1-(2,4-Difluorophenyl)-3-(4-(2-(piperidin-4-yl)thiazol-5-yl)phenyl)urea hydrochloride] and `O=C(Nc1ccc(-c2cnc(C3CCN(S(=O)(=O)C(F)(F)F)CC3)s2)cc1)Nc1ccc(F)cc1F` [Example 485, 1-(2,4-Difluorophenyl)-3-(4-(2-(1-((trifluoromethyl)sulfonyl)piperidin-4-yl)thiazol-5-yl)phenyl)urea] fall in the same range of inhibition at 1 µM: 20 to 50% for the first, 20 to 50% for the second.

`CC(C)(C)OC(=O)N1CCC(c2ncc(-c3ccc(NC(=O)Nc4c(F)cc(F)cc4F)cc3)s2)CC1` [Example 479, t-Butyl 4-(5-(4-(3-(2,4,6-trifluorophenyl)ureido)phenyl)thiazol-2-yl)piperidine-1-carboxylate] and `O=C(Nc1ccc(-c2cnc(C3CCN(S(=O)(=O)C(F)(F)F)CC3)s2)cc1)Nc1c(F)cc(F)cc1F` [Example 486, 1-(4-(2-(1-((Trifluoromethyl)sulfonyl)piperidin-4-yl)thiazol-5-yl)phenyl)-3-(2,4,6-trifluorophenyl)urea] fall in the same range of inhibition at 1 µM: 20 to 50% for the first, 20 to 50% for the second.

`O=C(Nc1ccc(-c2cnc(C3CCN(S(=O)(=O)C(F)(F)F)CC3)s2)cc1)Nc1ccccc1Cl` [Example 484, 1-(2-Chlorophenyl)-3-(4-(2-(1-((trifluoromethyl)sulfonyl)piperidin-4-yl)thiazol-5-yl)phenyl)urea] and `CS(=O)(=O)N1CCC(c2ncc(-c3ccc(NC(=O)Nc4ccccc4Cl)cc3)s2)CC1` [Example 490, 1-(2-Chlorophenyl)-3-(4-(2-(1-(methylsulfonyl)piperidin-4-yl)thiazol-5-yl)phenyl)urea] fall in the same range of inhibition at 1 µM: 20 to 50% for the first, 20 to 50% for the second.

First: O=C(Nc1ccc(-c2cnc(C3CCN(S(=O)(=O)C(F)(F)F)CC3)s2)cc1)Nc1cc(F)c(F)cc1F [Example 487, 1-(4-(2-(1-((Trifluoromethyl)sulfonyl)piperidin-4-yl)thiazol-5-yl)phenyl)-3-(2,4,5-trifluorophenyl)urea]
Second: CS(=O)(=O)N1CCC(c2ncc(-c3ccc(NC(=O)Nc4cc(F)c(F)cc4F)cc3)s2)CC1 [Example 494, 1-(4-(2-(1-(Methylsulfonyl)piperidin-4-yl)thiazol-5-yl)phenyl)-3-(2,4,5-trifluorophenyl)urea]
The inhibition at 1 µM of the first is lower: 20 to 50% for the first, over 50% for the second.

First: CS(=O)(=O)N1CCC(c2ncc(-c3ccc(NC(=O)Nc4ccccc4F)cc3)s2)CC1 [Example 491, 1-(2-Fluorophenyl)-3-(4-(2-(1-(methylsulfonyl)piperidin-4-yl)thiazol-5-yl)phenyl)urea]
Second: O=C(Nc1ccc(-c2cnc(C34CC5CC(CC(C(=O)O)(C5)C3)C4)s2)cc1)Nc1ccccc1F [Example 502, 3-(5-(4-(3-(2-Fluorophenyl)ureido)phenyl)thiazol-2-yl)adamantane-1-carboxylic acid]
The inhibition at 1 µM of the first is lower: 20 to 50% for the first, over 50% for the second.

`O=C(Nc1ccc(-c2cnc(C34CC5CC(CC(C(=O)O)(C5)C3)C4)s2)cc1)Nc1c(F)cccc1F` [Example 506, 3-(5-(4-(3-(2,6-Difluorophenyl)ureido)phenyl)thiazol-2-yl)adamantane-1-carboxylic acid] and `O=C(Nc1ccc(-c2cnc(C34CC5CC(CC(C(=O)O)(C5)C3)C4)s2)cc1)Nc1ccc(F)c(F)c1F` [Example 510, 3-(5-(4-(3-(2,3,4-Trifluorophenyl)ureido)phenyl)thiazol-2-yl)adamantane-1-carboxylic acid] cannot be ordered by inhibition at 1 µM: over 50% for the first, over 50% for the second.

`O=C(Nc1ccc(-c2cnc(C34CC5CC(CC(C(=O)O)(C5)C3)C4)s2)cc1)Nc1cc(F)c(F)cc1F` [Example 508, 3-(5-(4-(3-(2,4,5-Trifluorophenyl)ureido)phenyl)thiazol-2-yl)adamantane-1-carboxylic acid] and `O=C(Nc1ccc(-c2cnc(C34CC5CC(CC(C(=O)O)(C5)C3)C4)s2)cc1)Nc1cc(F)cc(F)c1` [Example 512, 3-(5-(4-(3-(3,5-Difluorophenyl)ureido)phenyl)thiazol-2-yl)adamantane-1-carboxylic acid] cannot be ordered by inhibition at 1 µM: over 50% for the first, over 50% for the second.

For `O=C(Nc1ccc(-c2cnc(C34CC5CC(CC(C(=O)O)(C5)C3)C4)s2)cc1)Nc1cccc(C(F)(F)F)c1` [Example 514, 3-(5-(4-(3-(3-(Trifluoromethyl)phenyl)ureido)phenyl)thiazol-2-yl)adamantane-1-carboxylic acid], the inhibition at 1 µM was over 50%.
